Reference: patent US8440638B2, “Compositions and methods for modulating calcium flux, glucose homeostasis and apoptosis” (Wisconsin Alumni Research Foundation, priority 2004, dated 2013)

Test system: OAADPr esterase
Assay: Cytoplasmic OAADPr esterase activity in HEK-293 cytoplasmic extract
Type: biochemical
Description: Shown is the development of whole cell currents over time in TRPM2-expressing HEK-293 cells. Bath solution was standard ringer's, and pipette solution was Cs-based and included 10 mM EGTA to buffer intracellular Ca^2+ to 10 nM. The patch pipette contained various concentrations of (FIG. 1a) ADPr, (FIG. 1b) OAADPr (FIG. 1c) OAADPr and puromycin as indicated in the figure. FIG. 1d.) Cytoplasmic OAADPr esterase activity is inhibited by puromycin. 200 μM O-[^3H]AADPr and 0-100 μM puromycin were added to cytoplasmic HEK-293 extract for 30 min. Percent hydrolysis of O-[^3H]AADPr to [^3H]acetate was measured as described hereinbelow. FIG. 1e.) Nuclear OAADPr acetyltransferase activity is not inhibited by puromycin. HEK-293 nuclear extract was incubated with 200 μM O-[^3H]AADPr in the presence or absence of 100 μM puromycin for 60 min. The reactions were quenched and resolved by HPLC. The radioactivity in collected fractions was determined by liquid scintillation counting. FIGS. 1f-g.) In vivo detection of OAADPr. Mass spectrum of HEK-293 generated OAADPr (peak m/z of 602.0894; the theoretical m/z for OAADPr is 602.0895) after puromycin treatment, with authentic [^13C]-OAADPr (peak m/z of 603.0851 and isotopic distribution of 604.0878 and 605.0928) as a standard. Peak 599.3691 is from the matrix.
Cytoplasmic and nuclear extracts were prepared from HEK-293 cells as previously described (22). To detect esterase activity (22), cytoplasmic extract was incubated with 200 μM O-[^3H]AADPr in the presence of 0-100 μM puromycin for 30 min. Activated charcoal slurry in PBS, pH 7.0 was added to quench the reaction and bind O-[^3H]AADPr. Samples were vortexed and centrifuged. Aliquots of the supernatant containing [^3H]acetate were removed and analyzed by liquid scintillation counting. To detect nuclear OAADPr metabolizing activity (22), nuclear extract was incubated with 200 μM O-[^3H]AADPr in the presence or absence of 100 μM puromycin for 60 min. The reaction was terminated by addition of TFA to 1%. […] Radioactivity in each elution fraction was measured by liquid scintillation counting.

Q: Which results are given for `COc1ccc(C[C@H](N)C(=O)N[C@H]2[C@@H](O)[C@H](n3cnc4c(N(C)C)ncnc43)O[C@@H]2CO)cc1` [puromycin]?
A: inhibition of cytosolic esterase activity (5 μM puromycin): substantially inhibit; inhibition of esterase activity (80 μM puromycin): completely inhibited; inhibition of OAADPr esterase (200 μM O-[3H]AADPr, 0-100 μM puromycin, 30 min): potent inhibitor
